Data reported in ChEMBL document CHEMBL3885881, “DrugMatrix”.
“And” between values parts separate entries of the source, which are not always exact repeats. Identical values can stand only once.

Species: Rattus norvegicus
Test: DrugMatrix - Regimen: Daily Repeat
Format: toxicity, organism-based, Sprague-Dawley
Design: regimen Daily Repeat, gender Male, age 6-8 weeks
Details: in vivo, po, route oral GAVAGE, vehicle .5 % CMC; for ABSOLUTE BASOPHIL / ABSOLUTE EOSINOPHIL / ABSOLUTE LYMPHOCYTE / ABSOLUTE MONOCYTE / BASOPHIL / EOSINOPHIL / ERYTHROCYTE COUNT / HEMATOCRIT / HEMOGLOBIN / LEUKOCYTE COUNT / LYMPHOCYTE / MEAN CORPUSCULAR HEMOGLOBIN / MEAN CORPUSCULAR HEMOGLOBIN CONCENTRATION / MEAN CORPUSCULAR VOLUME / MONOCYTE / NEUTROPHIL / PLATELET COUNT / ABSOLUTE SEGMENTED NEUTROPHIL / NUCLEATED RED BLOOD CELLS: tissue Blood; for ALANINE AMINOTRANSFERASE / ALBUMIN / ALKALINE PHOSPHATASE / ASPARTATE AMINOTRANSFERASE / BLOOD UREA NITROGEN / CARBON DIOXIDE / CHLORIDE / CHOLESTEROL / CREATINE PHOSPHOKINASE / CREATININE / GLUCOSE / LACTATE DEHYDROGENASE / LIPASE / PHOSPHORUS / POTASSIUM / SODIUM / TOTAL BILIRUBIN / TOTAL PROTEIN / URIC ACID: tissue Plasma
[1] = 0 mg/kg, 120 h, dose level Control, time 5 day
[2] = 0 mg/kg, […], dose level Control, time 14 day
[3] = 10 mg/kg, 72 h, dose level Low, time 3 day
[4] = 10 mg/kg, 120 h, dose level Low, time 5 day

For `CN(C)CCN(Cc1cccs1)c1ccccn1`, the ABSOLUTE BASOPHIL [1] was 150 cells/µL, the ABSOLUTE EOSINOPHIL [1] was 110 cells/µL and the ABSOLUTE LYMPHOCYTE [1] was 13400 cells/µL. It also gave an ABSOLUTE MONOCYTE [1] of 330 cells/µL, a BASOPHIL [1] of 0.78% and an EOSINOPHIL [1] of 0.62%. For the same compound, the “ERYTHROCYTE COUNT” value [1] was 7.12 x10E6/uL, the HEMATOCRIT [1] was 46.95% and the HEMOGLOBIN [1] was 14.55 G/DL. For the same compound, the “LEUKOCYTE COUNT” value [1] was 16.58 x10E3/uL, the LYMPHOCYTE [1] was 80.95% and the “MEAN CORPUSCULAR HEMOGLOBIN” value [1] was 20.45 pg. The “MEAN CORPUSCULAR HEMOGLOBIN CONCENTRATION” value [1] was 31.02 G/DL, the “MEAN CORPUSCULAR VOLUME” value [1] was 65.97 fL and the MONOCYTE [1] was 1.97%. The NEUTROPHIL [1] was 14.12%, the “PLATELET COUNT” value [1] was 1229.25 x10E3/uL and the “ALANINE AMINOTRANSFERASE” value [1] was 45 u/L. For the same compound, the ALBUMIN [1] was 3.8 G/DL, the “ALKALINE PHOSPHATASE” value [1] was 388 u/L and the “ASPARTATE AMINOTRANSFERASE” value [1] was 72.25 u/L. For the same compound, the “BLOOD UREA NITROGEN” value [1] was 15.75 mg/dL, the “CARBON DIOXIDE” value [1] was 37 mmol/L and the CHLORIDE [1] was 107 MEQ/L. For the same compound, the CHOLESTEROL [1] was 73 mg/dL, the “CREATINE PHOSPHOKINASE” value [1] was 525.5 u/L and the CREATININE [1] was 0.5 mg/dL. The GLUCOSE [1] was 179.5 mg/dL, the “LACTATE DEHYDROGENASE” value [1] was 216.25 u/L and the LIPASE [1] was 22.5 u/L. For the same compound, the PHOSPHORUS [1] was 11.97 mg/dL, the POTASSIUM [1] was 6.4 MEQ/L and the SODIUM [1] was 151.25 MEQ/L. The “TOTAL BILIRUBIN” value [1] was 0.3 mg/dL, the “TOTAL PROTEIN” value [1] was 6.55 G/DL and the “URIC ACID” value [1] was 1.35 mg/dL. The ABSOLUTE BASOPHIL [2] was 120 cells/µL, the ABSOLUTE EOSINOPHIL [2] was 40 cells/µL and the ABSOLUTE LYMPHOCYTE [2] was 10100 cells/µL. It also gave an ABSOLUTE MONOCYTE [2] of 190 cells/µL, a BASOPHIL [2] of 1.1% and an EOSINOPHIL [2] of 0.33%. For the same compound, the “ERYTHROCYTE COUNT” value [2] was 7.86 x10E6/uL, the HEMATOCRIT [2] was 48.5% and the HEMOGLOBIN [2] was 15.4 G/DL. The “LEUKOCYTE COUNT” value [2] was 11.73 x10E3/uL, the LYMPHOCYTE [2] was 85.92% and the “MEAN CORPUSCULAR HEMOGLOBIN” value [2] was 19.55 pg. The “MEAN CORPUSCULAR HEMOGLOBIN CONCENTRATION” value [2] was 31.72 G/DL, the “MEAN CORPUSCULAR VOLUME” value [2] was 61.67 fL and the MONOCYTE [2] was 1.6%. For the same compound, the NEUTROPHIL [2] was 10.2%, the “PLATELET COUNT” value [2] was 1212.75 x10E3/uL and the “ALANINE AMINOTRANSFERASE” value [2] was 47 u/L. The ALBUMIN [2] was 3.85 G/DL, the “ALKALINE PHOSPHATASE” value [2] was 356.5 u/L and the “ASPARTATE AMINOTRANSFERASE” value [2] was 87.75 u/L. For the same compound, the “BLOOD UREA NITROGEN” value [2] was 14.25 mg/dL, the “CARBON DIOXIDE” value [2] was 36.5 mmol/L and the CHLORIDE [2] was 106.5 MEQ/L. The CHOLESTEROL [2] was 63.25 mg/dL, the “CREATINE PHOSPHOKINASE” value [2] was 324.5 u/L and the CREATININE [2] was 0.65 mg/dL. For the same compound, the GLUCOSE [2] was 162.75 mg/dL, the “LACTATE DEHYDROGENASE” value [2] was 299 u/L and the LIPASE [2] was 16.75 u/L. The PHOSPHORUS [2] was 10.45 mg/dL, the POTASSIUM [2] was 6.6 MEQ/L and the SODIUM [2] was 152 MEQ/L. For the same compound, the “TOTAL BILIRUBIN” value [2] was 0.25 mg/dL, the “TOTAL PROTEIN” value [2] was 6.7 G/DL and the “URIC ACID” value [2] was 1.15 mg/dL. The “ABSOLUTE BASOPHIL” value [3] was 0 CELLS/uL, the “ABSOLUTE EOSINOPHIL” value [3] was 27 CELLS/uL and the “ABSOLUTE LYMPHOCYTE” value [3] was 9772.67 CELLS/uL. For the same compound, the “ABSOLUTE MONOCYTE” value [3] was 248.67 CELLS/uL, the “ABSOLUTE SEGMENTED NEUTROPHIL” value [3] was 751.67 CELLS/uL and the BASOPHIL [3] was 0%. For the same compound, the EOSINOPHIL [3] was 0.33%, the “ERYTHROCYTE COUNT” value [3] was 4.84 x10E6/uL and the HEMATOCRIT [3] was 31.57%. The HEMOGLOBIN [3] was 12.13 G/DL, the “LEUKOCYTE COUNT” value [3] was 10.8 x10E3/uL and the LYMPHOCYTE [3] was 90.33%. For the same compound, the “MEAN CORPUSCULAR HEMOGLOBIN” value [3] was 25.1 pg, the “MEAN CORPUSCULAR HEMOGLOBIN CONCENTRATION” value [3] was 38.43 G/DL and the “MEAN CORPUSCULAR VOLUME” value [3] was 65.27 fL. For the same compound, the MONOCYTE [3] was 2.33%, the NEUTROPHIL [3] was 7% and the “NUCLEATED RED BLOOD CELLS” value [3] was 0 /100WBC. For the same compound, the “PLATELET COUNT” value [3] was 1127 x10E3/uL, the “ALANINE AMINOTRANSFERASE” value [3] was 57.33 u/L and the ALBUMIN [3] was 3.9 G/DL. For the same compound, the “ALKALINE PHOSPHATASE” value [3] was 413.67 u/L, the “ASPARTATE AMINOTRANSFERASE” value [3] was 90.67 u/L and the “BLOOD UREA NITROGEN” value [3] was 16 mg/dL. For the same compound, the “CARBON DIOXIDE” value [3] was 30.33 mmol/L, the CHLORIDE [3] was 98.33 MEQ/L and the CHOLESTEROL [3] was 86 mg/dL. For the same compound, the “CREATINE PHOSPHOKINASE” value [3] was 368 u/L, the CREATININE [3] was 0.25 mg/dL and the GLUCOSE [3] was 147.33 mg/dL. The “LACTATE DEHYDROGENASE” value [3] was 103 u/L, the LIPASE [3] was 10.67 u/L and the PHOSPHORUS [3] was 10.53 mg/dL. For the same compound, the POTASSIUM [3] was 5.88 MEQ/L, the SODIUM [3] was 141.1 MEQ/L and the “TOTAL BILIRUBIN” value [3] was 0.23 mg/dL. For the same compound, the “TOTAL PROTEIN” value [3] was 6.23 G/DL, the “URIC ACID” value [3] was 0.43 mg/dL and the “ABSOLUTE SEGMENTED NEUTROPHIL” value [4] was 1373 CELLS/uL. For the same compound, the BASOPHIL [4] was 0.85% and 0%, the EOSINOPHIL [4] was 0.43% and 0.33% and the “ERYTHROCYTE COUNT” value [4] was 6.77 x10E6/uL and 5.32 x10E6/uL. The HEMATOCRIT [4] was 44.08% and 33.07%, the HEMOGLOBIN [4] was 13.62 G/DL and 12.93 G/DL and the “LEUKOCYTE COUNT” value [4] was 14.73 x10E3/uL and 11.23 x10E3/uL. The LYMPHOCYTE [4] was 80.67% and 87%, the “MEAN CORPUSCULAR HEMOGLOBIN” value [4] was 20.1 pg and 24.37 pg and the “MEAN CORPUSCULAR HEMOGLOBIN CONCENTRATION” value [4] was 30.93 G/DL and 39.13 G/DL. The “MEAN CORPUSCULAR VOLUME” value [4] was 65 fL and 62.23 fL, the MONOCYTE [4] was 2.75% and 0.33% and the NEUTROPHIL [4] was 13.88% and 12.33%. For the same compound, the “NUCLEATED RED BLOOD CELLS” value [4] was 0 /100WBC, the “PLATELET COUNT” value [4] was 1086.75 x10E3/uL and 1423 x10E3/uL and the “ALANINE AMINOTRANSFERASE” value [4] was 52.75 u/L and 43 u/L. The ALBUMIN [4] was 3.67 G/DL and 4 G/DL, the “ALKALINE PHOSPHATASE” value [4] was 395.75 u/L and 410 u/L and the “ASPARTATE AMINOTRANSFERASE” value [4] was 91 u/L and 82.67 u/L. For the same compound, the “BLOOD UREA NITROGEN” value [4] was 13.75 mg/dL and 14.67 mg/dL, the “CARBON DIOXIDE” value [4] was 36.75 mmol/L and 34.67 mmol/L and the CHLORIDE [4] was 105.75 MEQ/L and 99.33 MEQ/L. For the same compound, the CHOLESTEROL [4] was 84.75 mg/dL and 72 mg/dL, the “CREATINE PHOSPHOKINASE” value [4] was 591 u/L and 571.33 u/L and the CREATININE [4] was 0.4 mg/dL and 0.23 mg/dL. For the same compound, the GLUCOSE [4] was 181.5 mg/dL and 137.33 mg/dL, the “LACTATE DEHYDROGENASE” value [4] was 125.75 u/L and 163.67 u/L and the LIPASE [4] was 18.5 u/L and 7.33 u/L. For the same compound, the PHOSPHORUS [4] was 11.68 mg/dL and 12.63 mg/dL, the POTASSIUM [4] was 6.62 MEQ/L and 6.41 MEQ/L and the SODIUM [4] was 151 MEQ/L and 143.33 MEQ/L. The “TOTAL BILIRUBIN” value [4] was 0.28 mg/dL and 0.13 mg/dL, the “TOTAL PROTEIN” value [4] was 6.15 G/DL and 6.1 G/DL and the “URIC ACID” value [4] was 1.28 mg/dL and 0.87 mg/dL.
